Laboratory results from paper PMC10089971 (British journal of pharmacology, 2023).
“Also recorded” adds a separate entry of the source. Counter-ions that a name gives are not always drawn.

Columns and labels:
[1] = Analgesic efficacy of morphine with CPT-11; format: in vivo; settings: CPT-11 co-administration
[2] = system: MC38 colon adenocarcinoma cells; settings: mouse, in vivo
[3] = system: intestinal organoids; assay: Intestinal organoids treated with CPT-11 with or without morphine; settings: CPT-11 in the presence or absence of morphine
[4] = system: MC38 colon adenocarcinoma cells; assay: MC38 subcutaneous tumor model, anti-tumor efficacy of CPT-11; settings: MC38 s.c. tumors; compared with saline controls
[5] = system: C57BL/6 mice; assay: CPT-11-induced GI toxicity in mice; settings: for CPT-11-induced tissue damage in the ileum (histological score): co-administered with CPT-11 75 mg/kg, compared with CPT-11 alone
[6] = system: C57BL/6 mice; assay: Intestinal transit time with 70-kDa FITC-dextran; format: in vivo; settings: compared to saline-treated mice
[7] = system: carboxylesterase (CES); settings: ref Quinney et al., 2005; cited from earlier work

Compound: CCc1c2c(nc3ccc(OC(=O)N4CCC(N5CCCCC5)CC4)cc13)-c1cc3c(c(=O)n1C2)COC(=O)[C@]3(O)CC [CPT-11, Irinotecan hydrochloride]
- analgesic efficacy of morphine [1]: didn’t affect the analgesic efficacy of morphine
- body weight loss in tumor-bearing mice [2]: induced weight loss
- growth of intestinal organoids [3]: inhibited the growth of crypt stem cells
- reduction of tumor sizes [4]: 41.6%

Compound: CCOc1ccc(NC(=S)N(CCO)Cc2cc3cc(C)cc(C)c3[nH]c2=O)cc1 [Inh-1, 1-((6,8-Dimethyl-2-oxo-1,2-dihydroquinolin-3-yl)methyl)-3-(4-ethoxyphenyl)-1-(2-hydroxyethyl)thiourea]
- intestinal epithelial damage (ileal histology) ([5]; Inh-1 in morphine + CPT-11-treated mice): rescued the intestinal epithelial damage observed with morphine and CPT-11

Compound: Clc1cccc(Cl)c1N=C1NCCN1 [clonidine, Clonidine hydrochloride]
- gut transit time [6]: significantly prolonged gut transit time

Compound: CN(C)C(=O)C(CCN1CCC(O)(c2ccc(Cl)cc2)CC1)(c1ccccc1)c1ccccc1 [loperamide, Loperamide]
- carboxylesterase inhibition [7]: inhibitor of carboxylesterase (CES)
- CPT-11-induced tissue damage in the ileum (histological score) [5]: did not significantly exacerbate small intestinal tissue damage
- weight loss ([5]; oral loperamide + CPT-11 vs CPT-11): did not significantly exacerbate

Compound: CN1CC[C@]23c4c5ccc(O)c4O[C@H]2[C@@H](O)C=C[C@H]3[C@H]1C5 [morphine, Morphine sulfate]
- gut transit time [6]: significantly prolonged gut transit time
- CPT-11-induced tissue damage in the large intestine ([5]; co-administered with CPT-11): showed no effects on CPT-11-induced tissue damage
- CPT-11-induced tissue damage in the ileum (histological score) [5]: potentiated CPT-11-induced tissue damage in the ileum; also recorded: significantly potentiated CPT-11-induced tissue damage in the small intestines
- growth of intestinal organoids [3]: did not show any direct effects on CPT-11-treated organoids
